This note sets out measurements from patent publication US20100048575A1, “NOVEL TETRACYCLIC INHIBITORS OF CYSTEINE PROTEASES, THE PHARMACEUTICAL COMPOSITIONS THEREOF AND THEIR THERAPEUTIC APPLICATIONS” (priority 2006, published 2010).

The test system of test [1] is PC-3 prostate cancer cells. In words: PC3 cell viability and proliferation assay (MTS). To be noted: Homo sapiens, 72 hours, mean of 3 independent experiments, read-out: PC3 GI50 D3. It is filed as cell-based. The protocol:
PC-3 prostate cancer cells were obtained from ATCC, and maintained in F-12K medium containing 7% FBS and 1% penicillin/streptomycin. Cells were incubated at 37° C. in a humidified atmosphere containing 5% CO2.
Cell viability was assayed using the MTS technique in 96-well culture plates (CellTiter 96® Aqueous Non-Radioactive Cell Proliferation Assay, Promega) according to the manufacturer's instructions. MTS (3-(4,5-dimethyl-thiazol-2-yl)-5-(3-carboxymethoxyphenyl)-2-(4-sulfophenyl)-2H-tetrazolium) is a MTT-derived tetrazolium that is reduced in metabolically active cells into a soluble, cell-permeant formazan. The amount of formazan, detected by its absorbance at 492 nm is proportional to the number of living, metabolically active cells.
2×10^3 PC3 cells were seeded per well. 24 hours later, the medium was changed and the cells treated in triplicate with the following concentrations of each compound: 10 μM-3.33 μM-1.11 μM-370 nM-123 nM-41 nM-14 nM and 5 nM. The compounds were diluted in 100% DMSO, whose final concentration on cells was kept at 0.5%.
Cells were incubated with the compounds for 72 hours, and their viability then assayed by the addition of MTS for 2 hours. Absorbance at 492 nm was measured directly from the 96-well culture plates. GI50 (Growth Inhibition 50) concentrations for each compound were calculated using a sigmoidal variable slope fit (Prism 4.0, Graphpad Softwares). Values represent mean of 3 independent experiments.

Test [2] concerns the target T1, USP8 (Homo sapiens, UniProt P40818).
T1 construct: His tag (from vector pFastBac-HT) (N); made in house; host or cells: insect cells (Sf9 or High Five), baculovirus
T1 sequence (P40818 1-1118): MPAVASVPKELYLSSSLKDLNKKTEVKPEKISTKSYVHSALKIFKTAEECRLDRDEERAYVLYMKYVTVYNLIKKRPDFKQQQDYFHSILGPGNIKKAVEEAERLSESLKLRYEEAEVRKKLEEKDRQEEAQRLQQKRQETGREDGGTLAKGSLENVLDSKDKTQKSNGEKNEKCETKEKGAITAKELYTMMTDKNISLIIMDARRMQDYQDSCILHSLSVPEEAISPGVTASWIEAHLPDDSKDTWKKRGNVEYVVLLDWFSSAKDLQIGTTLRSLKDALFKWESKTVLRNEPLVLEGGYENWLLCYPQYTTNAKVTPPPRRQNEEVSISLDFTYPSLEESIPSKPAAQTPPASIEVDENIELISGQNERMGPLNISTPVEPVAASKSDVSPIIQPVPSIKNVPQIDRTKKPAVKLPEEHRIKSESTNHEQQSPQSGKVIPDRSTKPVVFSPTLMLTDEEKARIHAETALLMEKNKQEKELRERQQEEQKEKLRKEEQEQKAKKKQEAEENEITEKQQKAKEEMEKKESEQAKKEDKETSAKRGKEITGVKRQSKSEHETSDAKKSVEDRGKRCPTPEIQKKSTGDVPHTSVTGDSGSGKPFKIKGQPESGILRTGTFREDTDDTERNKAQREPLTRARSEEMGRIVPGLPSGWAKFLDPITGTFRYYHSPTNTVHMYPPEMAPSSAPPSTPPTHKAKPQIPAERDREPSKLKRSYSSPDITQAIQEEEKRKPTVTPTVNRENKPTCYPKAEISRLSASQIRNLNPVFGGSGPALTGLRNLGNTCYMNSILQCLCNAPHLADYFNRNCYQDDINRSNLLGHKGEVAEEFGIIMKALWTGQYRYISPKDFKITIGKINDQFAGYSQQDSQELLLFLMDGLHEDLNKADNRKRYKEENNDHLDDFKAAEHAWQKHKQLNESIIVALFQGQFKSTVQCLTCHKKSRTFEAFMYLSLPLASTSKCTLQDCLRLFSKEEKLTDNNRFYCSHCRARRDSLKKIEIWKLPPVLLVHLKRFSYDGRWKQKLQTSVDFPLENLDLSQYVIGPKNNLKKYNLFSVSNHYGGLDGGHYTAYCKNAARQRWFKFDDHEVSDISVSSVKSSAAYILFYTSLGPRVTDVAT
Description: USP8 activity assay (Ub-AMC). The test is classed as biochemical. To be noted: 400 nM Ub-AMC, 630 pM enzyme, pH8.8, 30 min pre-incubation, 60 min at 37° C., sigmoidal fit; read-out: USP8 (inhibition of cysteine protease activity). From the text: The cDNA encoding USP8 was obtained by PCR amplification from placenta mRNA. USP8 cDNA was subcloned by PCR into a baculovirus expression vector (pFastBac-HT; Invitrogen). A cDNA encoding a mutated USP8 was generated by mutagenic PCR. The corresponding protein encodes a cysteine to alanine substitution at residue 786. The sequences were ascertained by sequencing of the entire open reading frame. Bacmids encoding […] were generated following. DH10bac transposition. The corresponding bacmids were transfected into insect cells (Sf9). Viruses were recovered from culture supernatant and amplified twice. Insect cells (Sf9 or High Five; Invitrogen) were infected for 72 hours. Total cell lysates were harvested and lyzed in lysis buffer (Tris HCl 50 mM pH7.6; 0.75% NP40; 500 mM NaCl; 10% glycerol; 1 mM DTT; 10 mM imidazole; Protease Inhibitor Cocktail; AEBSF 20 μg.ml^−1; Aprotinin 10 μg.ml^−1). Proteins were affinity purified on metal affinity resins (Talon Metal affinity resin; BD Biosciences). Bound materials were extensively washed in wash buffer (50 mM Sodium Phosphate pH 7.0; 300 mM NaCl; 10 mM imidazole; 0.5% Triton X-100; 10% glycerol) and eluted from the resin in 250 mM imidazole-containing wash buffer. Proteins were dialyzed in dialysis buffer (Tris HCl pH 7.6 20 mM; NaCl 200 mM; DTT 1 mM; EDTA 1 mM; 10% Glycerol). Proteins purifications were analyzed on 4-12% NuPAGE (Invitrogen).
USP8 was diluted in USP buffer (50 mM Tris HCl; 0.5 mM EDTA; 5 mM DTT; 0.01% Triton X-100; Bovine Serum Albumin 0.05 mg.ml^−1 pH8.8). Compounds stocks (100 mM) were stored at −20° C. in DMSO.
Reactions were performed as duplicates in Black LJL 96 well plates (HE microplates; Molecular Devices; 20 μl final reaction volume). The substrate concentration for USP8 was 400 nM Ub-AMC (Boston Biochem). The concentrations of the enzyme (USP8) in specificity assays was 630 pM. The concentrations were determined in order to perform specificity assays under initial velocities at fixed substrate concentration. Compounds were pre-incubated with enzymes for 30 minutes at 25° C. Reactions were initiated by addition of substrate to the plates containing the enzymes (+/−compounds) diluted in assay buffer. Reactions were incubated for 60 minutes at 37° C. Reactions were stopped by adding acetic acid (100 mM final). Readings were performed on a Pherastar Fluorescent Reader (BMG). λ Emission 380 nm; λ Excitation=460 nm. Data (mean values +/−standard deviation) were analyzed as % of control (no compound) and plotted as percentage versus the Log of the compound concentration using GraphPad (Prism). Data were fitted to a sigmoidal model (variable slope).

As a reminder, the GI50 is the concentration at which growth is held to half of that of the control. For `ON=C1c2ccccc2-c2nn3nnnc3nc21` (mixture of isomers) [compound 7, 1,2,3,3a,4,10-hexaaza-cyclopenta[b]fluoren-9-one oxime], the GI50 in test [1] came to 466 nM.

For the compound `CON=C1c2ccccc2-c2nn3c(C)nnc3nc21` (mixture of isomers) [5a, 3-Methyl-1,2,3a,4,10-pentaaza-cyclopenta[b]fluoren-9-one O-methyl-oxime], the IC50 in test [2] amounted to 580 nM. The GI50 in test [1] came out at 6150 nM.

For the compound `C=CCON=C1c2ccccc2-c2nn3nnnc3nc21` (mixture of isomers) [compound 6, 1,2,3,3a,4,10-hexaaza-cyclopenta[b]fluoren-9-one O-allyl-oxime], in test [1], the concentration for 50% growth inhibition (GI50) came out at 180 nM.

Consider `C=CCON=C1c2ccccc2-c2nn3c(CC)nnc3nc21` (mixture of isomers) [10f, 3-Ethyl-1,2,3a,4,10-pentaaza-cyclopenta[b]fluoren-9-one O-allyl-oxime], for which, in test [2], the IC50 was determined as 342 nM. Besides, the GI50 in test [1] turned out to be 8400 nM.

Turning to `CCc1nnc2nc3c(nn12)-c1ccccc1C3=NOCc1ccccc1` (mixture of isomers) [10h, 3-Ethyl-1,2,3a,4,10-pentaaza-cyclopenta[b]fluoren-9-one O-benzyl-oxime], in test [2], the IC50 stood at 807 nM.

`COCCON=C1c2ccccc2-c2nn3nnnc3nc21` (mixture of isomers) [8b, 1,2,3,3a, 4,10-Hexaaza-cyclopenta[b]fluoren-9-one O-(2-methoxy-ethyl)-oxime]: in test [1], the GI50 was 457 nM.

As for `CCON=C1c2ccccc2-c2nn3c(CC)nnc3nc21` (mixture of isomers) [10d, 3-Ethyl-1,2,3a,4,10-pentaaza-cyclopenta[b]fluoren-9-one O-ethyl-oxime], in test [2], the IC50 worked out at 381 nM.

For `C=CCON=C1c2ccccc2-c2nn3c(CCCC)nnc3nc21` (mixture of isomers) [5d, 3-Butyl-1,2,3a,4,10-pentaaza-cyclopenta[b]fluoren-9-one O-allyl-oxime], the IC50 in test [2] amounted to 565 nM. Also, the 50% growth inhibitory concentration (GI50) in test [1] amounted to 2790 nM.

Regarding `C=CCON=C1c2ccccc2-c2nn3c(C)nnc3nc21` (mixture of isomers) [5b, 3-Methyl-1,2,3a,4,10-pentaaza-cyclopenta[b]fluoren-9-one O-allyl-oxime], in test [2], the IC50 is 355 nM. Also, in test [1], the 50% growth inhibitory concentration (GI50) came to 6690 nM.

Regarding `CCc1nnc2nc3c(nn12)-c1ccccc1C3=NOC` (mixture of isomers) [10b, 3-Ethyl-1,2,3a,4,10-pentaaza-cyclopenta[b]fluoren-9-one O-methyl-oxime], in test [2], the IC50 was found to be 528 nM.

In the case of `c1ccc(OCCCON=C2c3ccccc3-c3nn4nnnc4nc32)cc1` (mixture of isomers) [8c, 1,2,3,3a,4,10-Hexaaza-cyclopenta[b]fluoren-9-one O-(3-phenoxy-propyl)-oxime], the IC50 in test [2] worked out at 225 nM. The GI50 in test [1] is 502 nM.

As for `CCCCCCCCCCON=C1c2ccccc2-c2nn3nnnc3nc21` (mixture of isomers) [8a, 1,2,3,3a, 4,10-Hexaaza-cyclopenta[b]fluoren-9-one O-decyl-oxime], the IC50 in test [2] came to 27800 nM. In addition, the GI50 in test [1] was determined as 391 nM.
